US8742082B2, “Compositions and methods for influencing satiety, lipid metabolism, and fat utilization” (Nestec S.A., priority 2008, dated 2014)

Experiments:
Assay type in all cases: in vivo
[1] = Chronic oral OEA in high fat diet: liver, adipose fat pads and body weight; details: C3H mice, 4 weeks
Source text: The physiological and biochemical effects of chronic oral OEA administration were investigated. Mice were chronically fed with OEA, provided as a supplement during 4 weeks, to study the effect on body weight gain and cumulative food intake, among other parameters.
Animals, diet and experimental design. Adult male C3H mice purchased at 8 weeks of age were individually housed and maintained ad libitum on different diets and water for 2 weeks. Seven mice were allocated in 3 groups by randomization by weight, and fed with a high fat diet (lipids represented 50% of daily energy) during 2 weeks. The composition of the high fat diet per kg was: 284.5 g of corn starch, 89.5 g of saccharose, 250 g of casein, 50 g of cellulose, 10 g of a mix of vitamins (V1001), 35 g of a mix of minerals (S10026) and 281 g of canola oil (UPAE, Jouy en Josas, France). Then, OEA was added to the diets at different levels to provide 0, 10, or 100 mg OEA/kg body weight. The mice were kept on each respective diet for 4 weeks. During the nutritional intervention, daily food intake was monitored and the mice were weighed 3 times a week.
Sampling. At the end of the experimental period, mice were sacrificed by blood drawing after anesthesia with isoflurane. Plasma was obtained by centrifugation (1,000 g for 10 min at 4° C.). Mesenteric, epididymal, inguinal and peritoneal adipose depots, as well as liver, stomach, small intestine mucosa and gastrocnemian muscle were excised and frozen into liquid nitrogen. Plasma and organ samples were kept at −80° C. until analysis. Triglycerides, glucose, total cholesterol and HDL cholesterol were directly measured on plasma samples collected during the sacrifice by enzymatic procedures, using a Beckman Coulter Systems SYNCHRON LX 20 (Beckman Coulter, Fullerton, USA) (oxidase method, Beckman Coulter for glucose, GPO method, Beckman Coulter for TG, oxidase and esterase method, Beckman Coulter for cholesterol). HDL were isolated by specific solubilization, using a precipitation isolation kit (Beckman Coulter, Fullerton, USA).
Statistical analysis. Results were determined as mean±standard error of the mean (SEM). Statistical analysis of physiological parameters was performed by one-way ANOVA on Statview software (SAS institute, Cary, USA). Statistical significance was set up at the P<0.05 level.

[2] = test system: Stearoyl-Coenzyme A desaturase 1 (SCD 1); assay: Real-time PCR gene expression in peripheral tissues: SCD1; details: C57bl6j mice, high fat diet, 100 mg/kg/body weight in diet, 5 weeks
Experimental: (§1) The expression of 45 genes was measured by real-time PCR in peripheral tissues to identify genes that were differentially expressed in response to oral administration of oleoylethanolamide (OEA) or a non-hydrolysable OEA analog (KDS 5104), which affect satiety, lipid metabolism, fat utilization, food intake, and body fat mass.
Animals, diet, and experimental design. Adult male C57bl6j mice purchased at 8 weeks of age were individually housed and maintained ad libitum on high fat diet and water for 2 weeks. Seven mice were randomly allocated in 3 groups and fed with a high fat diet (lipids represented 50% of daily energy) for 2 weeks. For one kilogram, the composition of the high fat diet was: 235 g casein, 201 g saccharose, 3.5 g L-cystine, 85 g starch, 116 g maltodextrin, 60 g cellulose, 12 g vitamins mix (AIN-93M, UPAE, Jouy-en-Josas, France), 51.5 g mineral mix (AIN-93Vx, UPAE, Jouy-en-Josas, France), and 236 g lard. Then, either OEA or KDS 5104 was added to the diet at a concentration of 100 mg/kg/body weight. The mice were kept under treatment for 5 weeks.
Sampling. At the end of the experimental period, mice were sacrificed by blood drawing (cardiac puncture) after anesthesia with isoflurane. Plasma was obtained by centrifugation (1,000 g for 10 min at 4° C.). Mesenteric, epididymal, inguinal and peritoneal adipose depots, as well as liver, stomach, small intestine mucosa, pancreas, and gastrocnemian muscle were removed and frozen into liquid nitrogen. Plasma, urine, feces, and organ samples were kept at −80° C. until analysis.
RNA extraction and gene expression. Total RNA from liver, intestine mucous membrane, adipose tissues, gastrocnemian muscle, pancreas and stomach were extracted with TRIzol reagent (Invitrogen, Carlsbad, USA) according to the manufacturer's instruction. The RNA concentration was determined on nanodrop from the absorbance at 260 nm. Retro-transcription PCRs to synthesize cDNA were performed using an Applied Biosystem Thermal Cycler 2720 and Superscript II (Invitrogen, Carlsbad, USA) according to manufacturer's protocol. Real-time quantitative PCR (RT-qPCR) were performed on cDNA obtained as described above using a high through put system (Biomek 3000, Beckman & Coulter, Fullerton, USA) and a Lightcycler 480 (Roche/Hitachi, Basel, Switzerland) with SYBR Green Master mix+kit (Eurogentec, Philadelphia, USA). Primers for the selected genes were generated using online informatics assistance from the Lightcycler manufacturer (Roche). Databases used to identify the genes were (1) the NCBI database (GenBank) and (2) the IHOP (Information Hyperlinked over Protein) database (www.ihop-net.org/UniPub/iHOP/bng/). Values were expressed as ratio of RNA levels relative to control mice (diets with 0 mg of OEA/kg/body weight) using ΔΔ(Ct) (Livak K J & Schmittgen T D, 2001, Methods 25:402-8). Gene expression of the following genes was measured (abbreviation and GenBank Accession shown in parentheses).
Statistical analysis. […] Statistical analysis of physiological parameters and gene expression data was performed by one-way ANOVA on Statview software (SAS Institute, Cary, USA). Daily food intake was analyzed using two-way ANOVA on Statview software. Statistical significance was set up at the P<0.05 level, the P<0.01 level and the P<0.001 level. For statistical analysis of the gene expression data, values were calculated relative to 18S expression for each mouse and gene.

Cholescystokinin (CCK) = assay: Real-time PCR gene expression in peripheral tissues: CCK; details: proximal intestine; C57bl6j mice, high fat diet, 100 mg/kg/body weight in diet, 5 weeks
Experimental: as §1
(§2) Animals, diet, and experimental design. Adult male C57bl6j mice purchased at 8 weeks of age were individually housed and maintained ad libitum on high fat diet and water for 2 weeks. Seven mice were randomly allocated in 3 groups and fed with a high fat diet (lipids represented 50% of daily energy) for 2 weeks. […]
(§3) RNA extraction and gene expression. […] The RNA concentration was determined on nanodrop from the absorbance at 260 nm. […] Real-time quantitative PCR (RT-qPCR) were performed on cDNA obtained as described above using a high through put system (Biomek 3000, Beckman & Coulter, Fullerton, USA) and a Lightcycler 480 (Roche/Hitachi, Basel, Switzerland) with SYBR Green Master mix+kit (Eurogentec, Philadelphia, USA). […] Values were expressed as ratio of RNA levels relative to control mice (diets with 0 mg of OEA/kg/body weight) using ΔΔ(Ct) (Livak K J & Schmittgen T D, 2001, Methods 25:402-8). Gene expression of the following genes was measured (abbreviation and GenBank Accession shown in parentheses). […]

[3] = test system: Oleoylethanolamide synthase (OEA synthase); assay: Real-time PCR gene expression in peripheral tissues: OEA synthase; details: proximal intestine; C57bl6j mice, high fat diet, 100 mg/kg/body weight in diet, 5 weeks
Experimental: as §1, §2, §3

[4] = test system: Glucose transporter 4 (Glut 4); assay: Real-time PCR gene expression in peripheral tissues: Glut 4; details: muscle; C57bl6j mice, high fat diet, 100 mg/kg/body weight in diet, 5 weeks
Experimental: as §1, §2, §3

[5] = test system: overall gene expression pattern; assay: Multivariate statistical analysis of overall gene expression pattern; details: C57bl6j mice, high fat diet, 100 mg/kg/body weight in diet, 5 weeks
Experimental: as §1, §2, §3

Structure (SMILES): CCCCCCCC/C=C\CCCCCCCC(=O)NCCO [OEA, N-oleoyl-ethanolamide]
- mesenteric fat pads ([1]; independently of the dose): remained unaffected
- Peritoneal adipose tissue ([1]; OEA 10 or 100 mg/kg body weight): mainly decreased
- Hepatomegaly ([1]; OEA in diet): did not induce hepatomegaly
- final body weight ([1]; OEA in diet): not affected
- inguinal fat pads (indicator of subcutaneous fat depot) ([1]; OEA in diet, P<0.05): decreased
- SCD 1 at ep, ratio of RNA levels relative to control mice ([2]; epidydimal adipose tissue): 1.00
- SCD1 l, ratio of RNA levels relative to control mice ([2]; liver): −2.13
- SCD 1 at per, ratio of RNA levels relative to control mice ([2]; peritoneal adipose tissue): −1.30
- CCK i, ratio of RNA levels relative to control mice (Cholescystokinin (CCK)): 1.57
- OEA synthase i, ratio of RNA levels relative to control mice [3]: −1.38
- Glut 4 m, ratio of RNA levels relative to control mice [4]: 3.27
- overall gene expression pattern (multivariate statistical analysis) [5]: significant shift
